The values that follow come from ChEMBL document CHEMBL1201862, “PubChem BioAssay data set” (2004).

Active and inactive are the calls of the source.

For assay [1], the target named is Cytochrome P450 2C9 (Homo sapiens, UniProt P11712).
For assay [2], the target named is T1, Cytochrome P450 1A2 (Homo sapiens, UniProt P05177).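 Further: PubChem cytochrome P450 panel assay, CYP1A2 panel member.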
T1 sequence (P05177 whole entry): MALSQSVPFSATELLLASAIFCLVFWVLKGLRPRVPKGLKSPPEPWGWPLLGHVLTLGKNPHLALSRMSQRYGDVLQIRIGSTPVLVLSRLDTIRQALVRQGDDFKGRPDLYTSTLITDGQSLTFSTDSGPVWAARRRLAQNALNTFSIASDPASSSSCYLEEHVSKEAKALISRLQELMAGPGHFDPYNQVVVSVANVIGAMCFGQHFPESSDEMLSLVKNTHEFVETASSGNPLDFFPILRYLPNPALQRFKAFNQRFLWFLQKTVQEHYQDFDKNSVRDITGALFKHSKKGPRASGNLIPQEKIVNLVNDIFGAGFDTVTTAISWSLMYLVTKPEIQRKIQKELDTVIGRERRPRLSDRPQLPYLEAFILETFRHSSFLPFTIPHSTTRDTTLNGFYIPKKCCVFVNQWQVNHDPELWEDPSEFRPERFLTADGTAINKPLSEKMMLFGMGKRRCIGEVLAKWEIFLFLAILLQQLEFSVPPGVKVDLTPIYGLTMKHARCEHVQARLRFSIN

Assay [3] has as its target Cytochrome P450 2C19 (Homo sapiens, UniProt P33261). The assay can be described thus: Cytochrome panel assay with activity outcomes. Panel member name: p450-cyp2c19 Compounds with AC50 equal or less than 10 uM are considered active. In kind it is functional. The following applies: read-out: AC50.
Assay [4] has as its target Cytochrome P450 3A4 (Homo sapiens, UniProt P08684).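 Further: CYP3A4 tested as one member of a cytochrome P450 panel screen.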
The target of assay [5] is Large T antigen (Simian virus 40, UniProt P03070). The assay is classed as functional, Betapolyomavirus macacae.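 Further: Confirmatory-stage PubChem screen for compounds that inhibit SV40 T antigen.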
Assay [6] has as its target T2, Protein RecA (Mycobacterium tuberculosis, UniProt P9WHJ3).
T2 sequence (P9WHJ3 whole entry): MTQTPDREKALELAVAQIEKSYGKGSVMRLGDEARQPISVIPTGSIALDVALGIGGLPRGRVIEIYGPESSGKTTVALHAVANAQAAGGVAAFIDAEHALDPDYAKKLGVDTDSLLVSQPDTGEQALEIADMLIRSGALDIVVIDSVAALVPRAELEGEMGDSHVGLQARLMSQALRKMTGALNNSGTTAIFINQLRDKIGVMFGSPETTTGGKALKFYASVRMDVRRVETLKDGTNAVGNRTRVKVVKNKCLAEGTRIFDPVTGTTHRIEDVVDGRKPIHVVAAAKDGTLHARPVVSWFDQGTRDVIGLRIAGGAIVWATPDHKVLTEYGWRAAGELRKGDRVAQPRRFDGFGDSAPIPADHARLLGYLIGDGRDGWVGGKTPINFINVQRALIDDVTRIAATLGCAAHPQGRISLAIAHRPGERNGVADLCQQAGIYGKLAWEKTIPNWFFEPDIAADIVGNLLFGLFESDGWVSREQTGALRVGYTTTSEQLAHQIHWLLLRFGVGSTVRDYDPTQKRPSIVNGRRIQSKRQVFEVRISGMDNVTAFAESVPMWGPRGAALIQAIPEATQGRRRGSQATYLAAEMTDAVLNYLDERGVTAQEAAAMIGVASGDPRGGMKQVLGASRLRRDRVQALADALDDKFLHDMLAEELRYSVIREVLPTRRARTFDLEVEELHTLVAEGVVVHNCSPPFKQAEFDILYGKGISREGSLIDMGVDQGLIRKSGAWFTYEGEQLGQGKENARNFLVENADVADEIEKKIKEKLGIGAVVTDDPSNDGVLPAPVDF
Briefly: Fluorescence Cell-Free Homogeneous Dose Retest to Identify Inhibitors of RecA-Intein Splicing Activity. [Related pubchem assays (depositor defined):AID2097, AID2223, AID489010, AID492950]. In kind it is functional.

The target in assay [7] is T3, Replicative DNA helicase DnaB (Mycobacterium tuberculosis, UniProt P9WMR3).
T3 sequence (P9WMR3 whole entry): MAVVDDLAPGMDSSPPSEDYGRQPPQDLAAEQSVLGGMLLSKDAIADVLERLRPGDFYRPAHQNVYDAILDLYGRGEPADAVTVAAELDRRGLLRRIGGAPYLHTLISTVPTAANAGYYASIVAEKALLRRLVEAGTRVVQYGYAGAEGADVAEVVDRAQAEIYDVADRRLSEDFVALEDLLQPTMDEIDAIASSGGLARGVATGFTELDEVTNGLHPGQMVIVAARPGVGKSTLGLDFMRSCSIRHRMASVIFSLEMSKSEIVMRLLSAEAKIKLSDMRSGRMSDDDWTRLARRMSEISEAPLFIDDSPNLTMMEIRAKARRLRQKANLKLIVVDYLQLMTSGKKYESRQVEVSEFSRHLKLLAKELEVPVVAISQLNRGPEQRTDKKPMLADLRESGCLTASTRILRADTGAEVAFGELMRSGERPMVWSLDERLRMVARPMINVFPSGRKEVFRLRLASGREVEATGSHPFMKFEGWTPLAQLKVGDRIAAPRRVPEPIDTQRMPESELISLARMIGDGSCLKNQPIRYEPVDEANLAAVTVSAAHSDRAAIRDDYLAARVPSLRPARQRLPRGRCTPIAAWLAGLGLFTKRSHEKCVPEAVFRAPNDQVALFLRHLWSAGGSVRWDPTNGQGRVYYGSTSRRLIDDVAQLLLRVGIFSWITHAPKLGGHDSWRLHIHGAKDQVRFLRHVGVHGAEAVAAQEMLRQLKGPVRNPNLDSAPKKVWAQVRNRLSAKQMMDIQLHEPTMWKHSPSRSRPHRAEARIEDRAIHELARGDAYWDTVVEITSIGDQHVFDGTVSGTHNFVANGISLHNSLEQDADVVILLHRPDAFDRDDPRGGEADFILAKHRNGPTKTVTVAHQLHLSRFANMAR
Briefly: DnaB intein splicing inhibitors, dose response, biochemical, cell-free fluorescence (AID 449749). In kind it is functional.

A short description of assay [8]: control 3'UTR Renilla luciferase suppression, dose response, counter-screen for Shn3 inhibitor project, cell-based, Clone20-Shn3RL, cherry-picked (AID 624133). In kind it is functional.
Assay [9] in a line: Shn3 3'UTR reporter inhibitors, dose response, cell-based, Clone20 osteoblasts, firefly luciferase, cherry-picked (AID 624132).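 Further: firefly luciferase luminescence from reporter carrying the Shn3 3'UTR in osteoblasts.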 In kind it is functional.
Assay [10] deals with T4, Corticotropin-releasing factor receptor 2/Corticotropin-releasing factor-binding protein (Homo sapiens, UniProt P24387+Q13324).
T4 sequence (Q13324 whole entry): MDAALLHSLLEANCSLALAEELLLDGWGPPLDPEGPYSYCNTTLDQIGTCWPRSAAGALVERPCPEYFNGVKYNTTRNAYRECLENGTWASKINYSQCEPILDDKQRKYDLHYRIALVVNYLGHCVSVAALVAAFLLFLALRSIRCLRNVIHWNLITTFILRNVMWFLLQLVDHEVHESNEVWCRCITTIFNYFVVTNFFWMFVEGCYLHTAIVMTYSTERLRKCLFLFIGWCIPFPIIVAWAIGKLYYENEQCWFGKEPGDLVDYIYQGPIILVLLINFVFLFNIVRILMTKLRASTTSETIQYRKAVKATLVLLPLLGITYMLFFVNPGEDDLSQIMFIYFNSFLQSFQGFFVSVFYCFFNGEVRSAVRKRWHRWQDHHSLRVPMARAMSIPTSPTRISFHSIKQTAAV
T4 sequence (P24387 whole entry): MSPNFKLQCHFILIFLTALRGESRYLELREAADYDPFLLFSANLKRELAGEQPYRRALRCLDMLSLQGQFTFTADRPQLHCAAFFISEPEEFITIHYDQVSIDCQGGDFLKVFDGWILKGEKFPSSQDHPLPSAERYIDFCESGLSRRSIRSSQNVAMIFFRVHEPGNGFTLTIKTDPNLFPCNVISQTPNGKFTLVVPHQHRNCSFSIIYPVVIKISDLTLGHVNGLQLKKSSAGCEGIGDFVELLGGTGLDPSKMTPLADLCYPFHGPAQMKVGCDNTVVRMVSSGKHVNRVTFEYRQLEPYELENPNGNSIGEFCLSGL
Briefly: Dose Response confirmation of uHTS hits for small molecule antagonists of the CRF-binding protein and CRF-R2 receptor complex. The assay is classed as functional. The note with it: read-out: IC50_Mean.

The target in assay [11] is T5, Heat shock factor protein 1 (Mus musculus, UniProt P38532).
T5 sequence (P38532 whole entry): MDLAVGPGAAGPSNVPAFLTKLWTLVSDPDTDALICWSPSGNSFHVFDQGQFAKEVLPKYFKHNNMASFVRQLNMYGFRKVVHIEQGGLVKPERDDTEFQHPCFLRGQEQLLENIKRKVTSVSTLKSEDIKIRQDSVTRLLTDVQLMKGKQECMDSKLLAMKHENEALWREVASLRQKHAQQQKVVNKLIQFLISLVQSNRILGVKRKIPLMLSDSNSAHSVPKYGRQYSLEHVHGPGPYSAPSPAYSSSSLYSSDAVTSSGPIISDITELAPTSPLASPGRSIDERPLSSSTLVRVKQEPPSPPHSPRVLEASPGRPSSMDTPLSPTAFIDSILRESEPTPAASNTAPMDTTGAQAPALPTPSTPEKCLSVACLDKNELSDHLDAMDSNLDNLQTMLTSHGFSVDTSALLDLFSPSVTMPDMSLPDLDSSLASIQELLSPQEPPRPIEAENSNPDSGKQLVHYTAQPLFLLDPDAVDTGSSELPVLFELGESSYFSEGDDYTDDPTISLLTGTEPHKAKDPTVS
The assay can be described thus: HSF1 potentiators in luciferase reporter cells, confirmation, cell-based, NIH3T3, luminescence, dose retest (AID 435004).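 Further: stress induced by proteasome inhibitor MG132 added 30 min after compound; luciferase reporter driven by HSF1 response element in NIH3T3 cells; actives raise luminescence as potentiators of the MG132 stress response.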 In kind it is functional.

Assay [12] deals with T4, Corticotropin-releasing factor receptor 2/Corticotropin-releasing factor-binding protein. Briefly: activators of CRF receptor 2 with binding protein – uHTS hits, confirmation (AID 602473). In kind it is functional. The note with it: read-out: EC50_Mean.
The target of assay [13] is T6, Rac GTPase-activating protein 1 (Homo sapiens, UniProt Q9H0H5).
T6 sequence (Q9H0H5 whole entry): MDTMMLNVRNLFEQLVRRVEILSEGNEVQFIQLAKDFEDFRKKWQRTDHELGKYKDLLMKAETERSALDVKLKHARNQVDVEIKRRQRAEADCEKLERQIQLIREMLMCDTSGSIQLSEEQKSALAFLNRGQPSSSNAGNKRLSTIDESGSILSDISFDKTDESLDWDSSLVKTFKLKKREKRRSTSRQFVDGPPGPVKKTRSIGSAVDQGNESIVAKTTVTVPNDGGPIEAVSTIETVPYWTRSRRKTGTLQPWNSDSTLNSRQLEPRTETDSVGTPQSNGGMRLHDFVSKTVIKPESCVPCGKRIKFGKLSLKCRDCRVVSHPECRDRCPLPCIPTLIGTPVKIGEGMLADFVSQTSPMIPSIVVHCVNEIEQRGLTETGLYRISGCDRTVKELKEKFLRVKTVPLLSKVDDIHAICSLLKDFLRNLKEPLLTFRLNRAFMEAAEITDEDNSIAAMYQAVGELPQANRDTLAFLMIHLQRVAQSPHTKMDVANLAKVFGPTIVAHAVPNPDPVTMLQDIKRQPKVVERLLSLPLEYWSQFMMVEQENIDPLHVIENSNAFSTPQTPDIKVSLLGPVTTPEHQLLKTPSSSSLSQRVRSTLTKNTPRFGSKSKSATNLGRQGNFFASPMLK
Briefly: MgcRacGAP GTPase-activating activity inhibitors, confirmation, biochemical, ADP Hunter fluorescence, primary and confirmatory (AID 624330). In kind it is functional.

Chain of Cytochrome P450 3A4 (P08684 whole entry): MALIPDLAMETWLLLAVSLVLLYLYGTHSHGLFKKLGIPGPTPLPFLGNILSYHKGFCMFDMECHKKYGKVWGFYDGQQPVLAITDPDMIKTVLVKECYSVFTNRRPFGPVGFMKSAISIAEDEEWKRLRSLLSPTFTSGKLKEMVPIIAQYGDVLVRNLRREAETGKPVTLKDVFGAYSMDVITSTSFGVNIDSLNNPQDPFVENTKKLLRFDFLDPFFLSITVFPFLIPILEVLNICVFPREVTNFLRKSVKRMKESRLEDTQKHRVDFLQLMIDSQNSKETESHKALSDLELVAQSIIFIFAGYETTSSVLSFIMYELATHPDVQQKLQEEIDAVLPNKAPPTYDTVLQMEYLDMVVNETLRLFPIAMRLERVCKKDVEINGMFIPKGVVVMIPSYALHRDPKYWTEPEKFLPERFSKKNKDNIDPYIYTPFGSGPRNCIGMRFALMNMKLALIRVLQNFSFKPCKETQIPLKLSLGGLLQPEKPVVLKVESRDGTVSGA
Chain of Cytochrome P450 2C9 (P11712 whole entry): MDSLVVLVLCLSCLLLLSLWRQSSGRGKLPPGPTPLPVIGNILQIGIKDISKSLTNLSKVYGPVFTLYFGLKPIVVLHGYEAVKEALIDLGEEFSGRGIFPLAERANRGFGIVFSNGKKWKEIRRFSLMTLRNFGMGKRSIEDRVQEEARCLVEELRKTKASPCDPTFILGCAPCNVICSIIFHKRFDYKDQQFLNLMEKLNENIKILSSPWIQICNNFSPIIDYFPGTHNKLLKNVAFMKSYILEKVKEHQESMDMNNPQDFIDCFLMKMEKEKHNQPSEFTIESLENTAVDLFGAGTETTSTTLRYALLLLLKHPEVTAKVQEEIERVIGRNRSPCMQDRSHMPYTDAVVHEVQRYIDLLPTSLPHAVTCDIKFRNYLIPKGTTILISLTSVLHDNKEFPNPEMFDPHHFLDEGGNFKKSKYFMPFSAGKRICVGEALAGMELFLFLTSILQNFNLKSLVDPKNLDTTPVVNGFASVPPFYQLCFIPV
Chain of Large T antigen (P03070 whole entry): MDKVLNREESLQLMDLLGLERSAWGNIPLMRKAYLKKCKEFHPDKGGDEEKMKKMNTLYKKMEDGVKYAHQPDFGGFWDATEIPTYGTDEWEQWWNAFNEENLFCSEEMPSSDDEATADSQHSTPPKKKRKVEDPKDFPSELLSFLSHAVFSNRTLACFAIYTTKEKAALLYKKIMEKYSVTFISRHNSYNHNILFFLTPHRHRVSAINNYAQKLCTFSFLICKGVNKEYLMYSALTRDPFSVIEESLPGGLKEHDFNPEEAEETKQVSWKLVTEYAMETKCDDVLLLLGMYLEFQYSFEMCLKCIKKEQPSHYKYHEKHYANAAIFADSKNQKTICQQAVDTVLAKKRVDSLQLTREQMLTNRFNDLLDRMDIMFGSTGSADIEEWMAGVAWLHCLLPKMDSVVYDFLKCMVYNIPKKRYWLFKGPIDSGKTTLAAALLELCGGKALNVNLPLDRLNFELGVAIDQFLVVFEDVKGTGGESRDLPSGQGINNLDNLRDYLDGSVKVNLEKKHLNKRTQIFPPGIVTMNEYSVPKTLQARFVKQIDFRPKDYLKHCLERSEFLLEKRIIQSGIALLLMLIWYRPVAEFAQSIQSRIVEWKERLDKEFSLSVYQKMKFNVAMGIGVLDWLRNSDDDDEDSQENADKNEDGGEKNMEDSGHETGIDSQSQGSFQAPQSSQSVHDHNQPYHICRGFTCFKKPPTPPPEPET
Chain of Cytochrome P450 2C19 (P33261 whole entry): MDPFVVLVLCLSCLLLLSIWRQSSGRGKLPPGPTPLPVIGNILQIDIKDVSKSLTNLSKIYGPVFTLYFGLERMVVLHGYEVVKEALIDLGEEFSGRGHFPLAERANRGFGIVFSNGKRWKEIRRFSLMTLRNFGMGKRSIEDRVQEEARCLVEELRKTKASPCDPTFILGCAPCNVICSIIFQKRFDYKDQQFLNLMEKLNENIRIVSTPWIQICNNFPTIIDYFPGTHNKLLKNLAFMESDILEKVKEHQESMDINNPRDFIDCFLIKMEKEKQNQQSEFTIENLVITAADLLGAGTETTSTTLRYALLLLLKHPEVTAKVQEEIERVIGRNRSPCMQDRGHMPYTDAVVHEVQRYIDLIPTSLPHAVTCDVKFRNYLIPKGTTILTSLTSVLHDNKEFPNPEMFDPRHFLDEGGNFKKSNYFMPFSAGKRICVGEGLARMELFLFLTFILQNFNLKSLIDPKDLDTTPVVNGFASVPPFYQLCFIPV

Regarding `CN(Cc1cc(Cl)cc(Cl)c1O)Cc1c(O)ccc2ccccc12`, the AC50 was 3.16 µM (inconclusive) in assay [1] and 0.631 µM (inconclusive) in assay [2].
Consider `COc1ccc(-c2nc3cnc(Nc4ccccc4)nc3n(Cc3cccs3)c2=O)cc1`, for which the AC50 in [1] is 12.6 µM (inconclusive); in [2], 25.1 µM (inconclusive).
In the case of `CC(C)CN(Cc1c(O)ccc2c3c(c(=O)oc12)CCC3)CC(C)C`, the AC50 in assay [2] was 15.8 µM (inconclusive); in assay [3], 20 µM (inconclusive); in assay [4], 17.8 µM (inconclusive).
Take `COc1ccc(-c2nc3cnc(N4CCOCC4)nc3n(CCC#N)c2=O)cc1`: the concentration at half-maximal activity (AC50) in assay [2] is 3.16 µM (inconclusive).
Same read-out and setting: the same measure for `Cc1cc(NC(=O)c2nn(C)c(C)c2[N+](=O)[O-])no1`: 25.1 µM (inconclusive); for `CCOC(=O)Cc1csc(NC(=O)c2c(-c3c(Cl)cccc3Cl)noc2C)n1`: 14.1 µM (inconclusive).
For the compound `O=C(NC1CCCCC1)C12CC3CC(C1)CC(n1cncn1)(C3)C2`, the AC50 in [1] is 5.01 µM (inconclusive); in [2], 28.2 µM (inconclusive); in assay [3], 28.2 µM (inconclusive); in assay [4], 3.55 µM (inconclusive).
Consider `Cc1ccc2oc(=O)c(/C=C(\O)C(C)(C)C)nc2c1`, for which the IC50 in [5] is 11 µM (active).
Turning to `C[C@@H](CCC(=O)O)C(=O)O`, the AC50 in [2] is 6.31 µM (inconclusive).
With `O=C(N/N=C/c1ccc(OC(=O)c2ccco2)cc1)c1ccc[n+]([O-])c1`, the IC50 in assay [5] is 55.5 µM (active). Also, the EC50 in assay [6] is 24.6 µM (active). For the same compound, the AC50 in assay [7] is 24.6 µM (active).
In the case of `COc1ccc(S(=O)(=O)N2CCN(c3cc(-c4ccccc4)nc4ncnn34)CC2)cc1`, the AC50 in assay [8] was 1.6 µM (active); in assay [9], 3.89 µM (active).
Consider `CC(C)CCNC(=O)C12CN(Cc3ccccc3)CC1C(c1cccc([N+](=O)[O-])c1)=NO2` (stereo not given), for which the concentration at half-maximal activity (AC50) in assay [2] was 14.1 µM (inconclusive).
For `Cc1nc2ccccc2nc(C)c1=NOCc1ccccc1Cl`, the IC50 in assay [10] is > 47.1 µM (inactive). Moreover, the EC50 was > 260 µM (inactive) in assay [11] and > 53 µM (inactive) in assay [12].
Regarding `CCN(CC)c1ccc(NC(=O)CSc2nnc3nc(C)cc(C)n23)cc1`, the IC50 in assay [5] is 19.8 µM (active). Further, the AC50 is 17.8 µM (inconclusive) in assay [3] and 39.8 µM (inconclusive) in [4].
As for `Cn1cccc1/C=N/N1CCN(c2ccccn2)CC1`, the IC50 in assay [13] is 27.6 µM (active); in [5], 5.17 µM (active).
